{
  "source": "patent US6441011B1",
  "about": "“Combined preparation consisting of 2-methylthiazolidine-2,4-dicarboxylic acid and paracetamol” (priority 1997, dated 2002)",
  "key": {"[1]": {"system": "mice", "assay": "Time-dosage dependency: GSH in hepatic tissue after CP injection", "format": "in vivo", "details": "for GSH % of control / GSH: mice"}, "[2]": {"system": "mice", "assay": "Paracetamol liver damage and pre-treatment with CP: indicator substances in hepatic tissue and blood", "format": "in vivo", "details": "for Cysteine / Cystine / Glycogen / Non-protein SH / Oxygen radicals / Protein SH / Total SH / AlAT / AspAT: CP 1.2 mmol/kg pre-treatment, 12 h later paracetamol 600 mg/kg i.p. or control solution; for Cysteine / Cystine / Glycogen / Non-protein SH / Oxygen radicals / Protein SH / Total SH: tissue after another 3 h; for AlAT / AspAT: blood serum, blood after another 3 h; for concentration of oxygen radicals / concentration of sulfhydryl groups / free cysteines in the hepatic tissue / glycogen in the hepatic tissue / enzymes in the blood serum released from the liver (AlAT, AspT): paracetamol 600 mg/kg single dose, CP pre-treatment 1.2 mmol/kg; for enzymes in the blood serum released from the liver (AlAT, AspT): within 3 hours", "method": "(§1) The mice were pre-treated using 1.2 mmol CP/kg, and 12 hours later they were treated with the control solution or 600 mg of paracetamol/kg of body weight i.p. Hepatic tissue and blood were extracted after another 3 hours, and the indicator substances were measured."}, "[3]": {"system": "mice", "assay": "Toxic effects of CP under in-vivo conditions", "details": "up to a dose of 2.4 mmol CP/kg of body weight", "method": "as §1"}, "[4]": {"system": "Hep G2 cells", "assay": "Cytotoxicity of paracetamol and protective action of CP on permanent hepatic cell line", "format": "cell-based", "method": "The cells were kept for 10 days in a medium that contained paracetamol (1 mM). […] The concentrations of the indicator substances were measured at the end of the period of exposure (Table 3). […] It is therefore recommended to choose higher AA concentrations for later experiments."}, "[5]": {"details": "CP 1.2 mmol/kg, 8 h after injection"}, "[6]": {"details": "CP 2.4 mmol/kg, 4 h after injection"}, "[7]": {"details": "Hep G2 cells, 10 days, AA 1 mM, simultaneous CP 2 mM"}, "[8]": {"details": "Hep G2 cells, 10 days, AA 1 mM, CP 2 mM"}},
  "note": "Marks after values point to notes of the source that are not given here.",
  "data": [
    {"smiles": "CC1(C(=O)O)NC(C(=O)O)CS1", "note": "(centres unmarked) [CP, 2-methyl-thiazolidine-2,4-dicarboxylic acid]", "values": [
      {"measurement": "increase of glutathione concentration in the hepatic tissue", "setting": "[1]; after 12 hours, 1.2 or 2.4 mmol/kg of body weight", "value": "could still be detected"},
      {"measurement": "GSH % of control", "setting": "[1]; CP 1.2 mmol/kg, 1 h after injection", "value": "117.5 % of control"},
      {"measurement": "GSH % of control", "setting": "[1]; CP 1.2 mmol/kg, 4 h after injection", "value": "87.2 % of control"},
      {"measurement": "GSH", "setting": "[1]; [5]", "value": "6.48 ± 0.67 μmol/g of wet weight"},
      {"measurement": "GSH % of control", "setting": "[1]; [5]", "value": "108.5 % of control"},
      {"measurement": "GSH % of control", "setting": "[1]; CP 1.2 mmol/kg, 12 h after injection", "value": "122.0 % of control"},
      {"measurement": "GSH % of control", "setting": "[1]; CP 2.4 mmol/kg, 1 h after injection", "value": "127.6 % of control"},
      {"measurement": "GSH", "setting": "[1]; [6]", "value": "5.76 ± 0.42 μmol/g of wet weight"},
      {"measurement": "GSH % of control", "setting": "[1]; [6]", "value": "90.3 % of control"},
      {"measurement": "GSH % of control", "setting": "[1]; CP 2.4 mmol/kg, 8 h after injection", "value": "112.0 % of control"},
      {"measurement": "GSH % of control", "setting": "[1]; CP 2.4 mmol/kg, 12 h after injection", "value": "154.5 % of control"},
      {"measurement": "glutathione concentration in the hepatic tissue", "setting": "[1]; within one hour post application of 1.2 or 2.4 mmol/kg of body weight", "value": "rose considerably"},
      {"measurement": "Cysteine", "setting": "[2]", "value": "0.240^a ± μmol/g wet weight of the liver"},
      {"measurement": "Cystine", "setting": "[2]", "value": "0.020^a ± μmol/g wet weight of the liver"},
      {"measurement": "Glycogen", "setting": "[2]", "value": "12.59 ± 0.21 mg/g wet weight of the liver"},
      {"measurement": "Non-protein SH", "setting": "[2]", "value": "3.81^a ± μmol/g wet weight of the liver"},
      {"measurement": "Oxygen radicals", "setting": "[2]", "value": "0.120^a ± μmol/g wet weight of the liver"},
      {"measurement": "Protein SH", "setting": "[2]", "value": "13.27^a ± μmol/g wet weight of the liver"},
      {"measurement": "Total SH", "setting": "[2]", "value": "17.08^a ± μmol/g wet weight of the liver"},
      {"measurement": "AlAT", "setting": "[2]", "value": 20, "unit": "units/l"},
      {"measurement": "AspAT", "setting": "[2]", "value": 199, "unit": "units/l"},
      {"measurement": "concentration of oxygen radicals", "setting": "[2]", "value": "significantly reduced"},
      {"measurement": "concentration of sulfhydryl groups", "setting": "[2]", "value": "reduced the decrease"},
      {"measurement": "free cysteines in the hepatic tissue", "setting": "[2]", "value": "significantly increased"},
      {"measurement": "glycogen in the hepatic tissue", "setting": "[2]", "value": "significantly increased"},
      {"measurement": "enzymes in the blood serum released from the liver (AlAT, AspT)", "setting": "[2]", "value": "suppressed the increase"},
      {"measurement": "toxic effects", "setting": "[3]", "value": "no toxic effects"},
      {"measurement": "effect against high concentrations of paracetamol in the hepatic cell model", "setting": "[4]; Hep G2 cell culture", "value": "protective effect"},
      {"measurement": "L-cysteine and cystine concentrations", "setting": "[4]; [7]", "value": "more than compensated"},
      {"measurement": "free radicals", "setting": "[4]; [7]", "value": "prevented"}
    ]},
    {"smiles": "CC(=O)Nc1ccc(O)cc1", "note": "[Paracetamol, paracetamol]", "values": [
      {"measurement": "Cysteine", "setting": "[2]", "value": "0.062^a ± μmol/g wet weight of the liver"},
      {"measurement": "Cystine", "setting": "[2]", "value": "0.025^a ± μmol/g wet weight of the liver"},
      {"measurement": "Glycogen", "setting": "[2]", "value": "8.45^a ± mg/g wet weight of the liver"},
      {"measurement": "Non-protein SH", "setting": "[2]", "value": "0.22^a ± μmol/g wet weight of the liver"},
      {"measurement": "Oxygen radicals", "setting": "[2]", "value": "0.317^a ± μmol/g wet weight of the liver"},
      {"measurement": "Protein SH", "setting": "[2]", "value": "12.34 ± 0.20 μmol/g wet weight of the liver"},
      {"measurement": "Total SH", "setting": "[2]", "value": "12.56^a ± μmol/g wet weight of the liver"},
      {"measurement": "AlAT", "setting": "[2]", "value": 682, "unit": "units/l"},
      {"measurement": "AspAT", "setting": "[2]", "value": 855, "unit": "units/l"},
      {"measurement": "concentration of oxygen radicals", "setting": "[2]", "value": "increased"},
      {"measurement": "concentration of sulfhydryl groups", "setting": "[2]", "value": "dropped dramatically"},
      {"measurement": "free cysteines in the hepatic tissue", "setting": "[2]", "value": "dropped dramatically"},
      {"measurement": "glycogen in the hepatic tissue", "setting": "[2]", "value": "dropped dramatically"},
      {"measurement": "enzymes in the blood serum released from the liver (AlAT, AspT)", "setting": "[2]", "value": "enormous increase"},
      {"measurement": "concentrations of the other indicator substances", "setting": "[4]; Hep G2 cells, 10 days, AA 1 mM", "value": "remained unchanged"},
      {"measurement": "Cysteine", "setting": "[4]; [8]", "value": 3.68, "unit": "nmol/mg Protein"},
      {"measurement": "Cystine", "setting": "[4]; [8]", "value": 0.130, "unit": "nmol/mg Protein"},
      {"measurement": "GSH", "setting": "[4]; [8]", "value": 14.9, "unit": "nmol/mg Protein"},
      {"measurement": "Glutamine synthetase", "setting": "[4]; [8]", "value": 0.41, "unit": "units/mg protein"},
      {"measurement": "LDH", "setting": "[4]; [8]", "value": 1.88, "unit": "units/mg protein"},
      {"measurement": "NPSH", "setting": "[4]; [8]", "value": 18.90, "unit": "nmol/mg Protein"},
      {"measurement": "free radicals", "setting": "[4]; [8]", "value": 0.210, "unit": "nmol/mg Protein"},
      {"measurement": "number of cells", "setting": "[4]; [8]", "value": "6 × 10^8 cells"},
      {"measurement": "vital cells", "setting": "[4]; [8]", "value": 94, "unit": "% vital"},
      {"measurement": "L-cysteine and cystine concentrations", "setting": "[4]; [7]", "value": "dropped slightly"},
      {"measurement": "free radicals", "setting": "[4]; [7]", "value": "increase"}
    ]}
  ]
}
